{"source": "patent US20090011935A1", "about": "“Method of Inducing Tolerance of Plants Against Bacterioses” (BASF SE, priority 2006, published 2009)", "tested_on": "bacteria", "test": "Effect of metiram alone on bacteria"}
{"substance": "metiram", "values": [{"measurement": "effect on bacteria", "result": "very close to zero"}]}
